Data on 1 compound can be found in US20110207751A1, “HETEROCYCLIC COMPOUNDS AND USES AS ANTICANCER AGENTS” (priority 2010, published 2011).

For test [1], the system named is KB200 cells over-expressing multiple drug resistant (MDR) gene. In words: Inhibition of cell proliferation, xCelligence cell index. It counts as cell-based. The following applies: Homo sapiens, 72 hr post compound treatment, read-out: calculated IC50.
Source text: (§2) The biological activity of compounds disclosed herein was monitored and profiled using the Real-Time Cell Electronic Sensing (RT-CES®) system from ACEA Biosciences, Inc. The RT-CES system utilizes cell-substrate impedance technology to monitor cellular behavior inside tissue culture wells in a microtiter plate format. The technology features in the integration of molecular and cell biology with microelectronics and is based on the electronic detection of biological assay process.
For measurement of cell-substrate or cell-electrode impedance using RT-CES technology, microelectrodes having appropriate geometries are fabricated onto the bottom surfaces of microtiter plate or similar device, facing into the wells. Cells are introduced into the wells of the devices, and make contact to and attach to the electrode surfaces. The presence, absence or change of properties of cells affects the electronic and ionic passage on the electrode sensor surfaces. Measuring the impedance between or among electrodes provides important information about biological status of cells present on the sensors. When there are changes to the biological status of the cells analogue electronic readout signals are measured automatically and in real time, and are converted to digital signals for processing and for analysis. In a RT-CES system, a cell index (arbitrary representation of change in impedance) is automatically derived and provided based on measured electrode impedance values. The cell index obtained for a given well reflects: 1) how many cells are attached to the electrode surfaces in this well; 2) how well cells are attached to the electrode surfaces in this well. Thus, the more the cells of same type in similar physiological conditions attach the electrode surfaces, the larger the cell index. And, the better the cells attach to the electrode surfaces (e.g., the cells spread-out more to have larger contact areas, or the cells attach tighter to electrode surfaces), the larger the cell index.
To quantify cell status based on the measured cell-electrode impedance, a parameter termed Cell Index is derived. Cell Index is a quantitative measure of the status of the cells in an electrode-containing well. Under the same physiological conditions, more cells attached on to the electrodes leads to larger cell-electrode resistance value, leading to a larger value for Cell Index. Furthermore, for the same number of cells present in the well, a change in the cell status such as morphology will lead to a change in the Cell Index. […]
The efficacy of these compounds was also tested against KB200 cell over-expressing multiple drug resistant (MDR) gene. […] The cell status was monitored prior to and after the compound addition using xCelligence system (Roche). […]
For test [2], the system named is KB cells (parental cervical cancer cell line). The test is described as above. It counts as cell-based. The settings on record: Homo sapiens, 72 hr post compound treatment, read-out: calculated IC50.
Source text: as §2
For measurement of cell-substrate or cell-electrode impedance using RT-CES technology, microelectrodes having appropriate geometries are fabricated onto the bottom surfaces of microtiter plate or similar device, facing into the wells. Cells are introduced into the wells of the devices, and make contact to and attach to the electrode surfaces. The presence, absence or change of properties of cells affects the electronic and ionic passage on the electrode sensor surfaces. Measuring the impedance between or among electrodes provides important information about biological status of cells present on the sensors. When there are changes to the biological status of the cells analogue electronic readout signals are measured automatically and in real time, and are converted to digital signals for processing and for analysis. In a RT-CES system, a cell index (arbitrary representation of change in impedance) is automatically derived and provided based on measured electrode impedance values. The cell index obtained for a given well reflects: 1) how many cells are attached to the electrode surfaces in this well; 2) how well cells are attached to the electrode surfaces in this well. […]
To quantify cell status based on the measured cell-electrode impedance, a parameter termed Cell Index is derived. Cell Index is a quantitative measure of the status of the cells in an electrode-containing well. […]
The parental cervical cancer cell line, KB cells were first tested. […] The cell status was monitored prior to and after the compound addition using xCelligence system (Roche). […]
Test [3] deals with tubulin (vinblastine-binding site). The experiment in a line: Spin column assay with [^3H]vinblastine. The settings on record: tubulin with [^3H]vinblastine and unlabeled competitor, 37° C. 1 h. The procedure: (§1) Spin column assay. […] The reaction mixtures were incubated at 37° C. for 1 h. The samples were loaded onto Illustra™ MicroSpin™ G-50 columns (GE Healthcare) previously equilibrated with the buffer solution. The columns were placed into 1.5-ml tubes and spun at 750 g for 2 min at room temperature, and radioactivity in the flow-through was analyzed by a scintillation counter.

For test [4], the system named is tubulin (colchicine-binding site). The experiment in a line: Spin column assay with [^3H]colchicine. The following applies: tubulin with [^3H]colchicine and unlabeled competitor, 37° C. 1 h. How it is done:
as §1

Molecules are shown by their SMILES.

Take `CC[C@]1(O)C[C@@H]2CN(CCc3c([nH]c4ccccc34)[C@@](C(=O)OC)(c3cc4c(cc3OC)N(C)[C@H]3[C@@](O)(C(=O)OC)[C@H](OC(C)=O)[C@]5(CC)C=CCN6CC[C@]43[C@@H]65)C2)C1` [vinblastine, reference compound]: the 50% inhibitory concentration (IC50) – broadly, the concentration at which inhibition is half-maximal – in test [1] is 135 nM; in test [2], 4.74 nM. Moreover, the “amount of [^3H]vinblastine in the flow-through” value in test [3] was “reduced the amount of [^3H]vinblastine found in the flow-through in a concentration-dependent manner”. In addition, in test [4], the “amount of [^3H]colchicine in the flow-through” value is “did not influence the amount of [^3H]colchicine in the flow-through”.
